Reference: EP4737454A1, “GLP-1 RECEPTOR AGONIST, AND PREPARATION METHOD THEREFOR AND USE THEREOF” (Wayne Biotechnology Co., Ltd., priority 2023, dated 2025)

Target: Human GLP-1R (Homo sapiens, UniProt P43220)
Assay: cAMP level determination in human GLP-1R stably transfected HEK293T cells (HTRF cAMP kit)
Assay type: cell-based
Details: 37°C 30 min
Experimental: Human GLP-1R HEK293T stably transfected cells were digested with trypsin, terminated with DMEM total (without p/s), centrifuged and washed twice with 1X Stimulation buffer, then resuspended in 1X stimulation buffer and counted. The cells were then prepared as a 1 Million/mL cell suspension in stimulation buffer. Compound powder was first prepared as a 10 mM stock solution in DMSO, then diluted to 2 mM with DMSO, and further prepared as 2X compound in 1X stimulation buffer (Cisbio kit buffer with freshly added IBMX at a final concentration of 0.5 mM). The top dose final concentration was 2000 nM, with a final DMSO concentration of 0.2%, diluted in a 1:3 gradient for 11 gradients.
According to the layout, 5 µl of compound was added to each well; Min wells contained 100 nM GLP-1, and Max wells contained 0.2% DMSO in 1X stimulation buffer. 5 µl of cell suspension was added to each well, centrifuged at 300 rpm at room temperature for 1 min, then incubated at 37°C for 30 min. 2X cAMP standards were prepared in 1X Stimulation buffer, with a top final concentration of 2.8 µM, diluted in a 1:3 gradient for 12 doses. According to the layout, 10 µl was added to each well. Finally, d2 and antibody were diluted 20-fold in 1X Detection buffer (Cisbio kit buffer), and 5 µl of each was added to each well according to the layout. After centrifugation at 300 rpm at room temperature for 1 min, the plate was incubated at room temperature for 2 hr.
Stimulation% was calculated based on Min and Max readings (665nm/615nm ratio) using the formula: 100*(ratio Max well - ratio test well)/(ratio Max well - ratio Min well). The cAMP concentration in each test well was derived from the cAMP standard curve, and the data was analyzed using GraphPad Prism 9 to plot four-parameter fit curves and calculate EC50 values using the formula: Y=Bottom + (Top-Bottom)/(1+10^((LogEC50-X)*HillSlope)). Table 1: cAMP Level Determination in Human GLP-1R Stably Transfected HEK293T Cells

Chain of Human GLP-1R (P43220 24-463): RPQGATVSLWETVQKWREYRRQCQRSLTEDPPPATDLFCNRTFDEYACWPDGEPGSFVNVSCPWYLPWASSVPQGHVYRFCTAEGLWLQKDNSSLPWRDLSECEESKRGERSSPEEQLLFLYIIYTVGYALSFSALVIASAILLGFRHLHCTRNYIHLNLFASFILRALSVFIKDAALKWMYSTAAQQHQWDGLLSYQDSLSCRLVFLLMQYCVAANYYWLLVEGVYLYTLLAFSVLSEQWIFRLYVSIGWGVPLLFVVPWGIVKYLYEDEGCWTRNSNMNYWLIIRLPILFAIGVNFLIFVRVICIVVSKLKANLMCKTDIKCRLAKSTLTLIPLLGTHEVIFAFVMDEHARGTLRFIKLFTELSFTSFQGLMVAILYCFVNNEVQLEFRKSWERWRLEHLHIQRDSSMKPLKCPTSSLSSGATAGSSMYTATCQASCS

`Cc1cc(-n2nc3c(c2-n2ccn(-c4ccc(C#N)c(F)c4F)c2=O)[C@H](C)N(C(=O)c2cc4cc(C5CCOC(C)(C)C5)ccc4n2[C@@]2(c4nc(=O)o[nH]4)C[C@@H]2C)CC3)cc(C)c1F` (stereo partly shown) [Compound 93] and `Cc1cc(-n2nc3c(c2-n2ccn(-c4cc(F)c(C#N)cc4F)c2=O)[C@H](C)N(C(=O)c2cc4cc(C5CCOC(C)(C)C5)ccc4n2[C@@]2(c4nc(=O)o[nH]4)C[C@@H]2C)CC3)cc(C)c1F` (stereo partly shown) [Compound 83] are within 1.5-fold of each other in EC50: 15.1 nM for the first, 12.8 nM for the second.

First: Cc1cc(-n2nc3c(c2-n2ccn(-c4ccc(C(=O)N5CCCC5)cc4)c2=O)[C@H](C)N(C(=O)c2cc4cc(C5CCOC(C)(C)C5)ccc4n2[C@@]2(c4nc(=O)o[nH]4)C[C@@H]2C)CC3)cc(C)c1F (stereo partly shown) [Compound 22]
Second: Cc1cc(-n2nc3c(c2-n2ccn(-c4ccc(C(=O)N5CCC5)c(F)c4)c2=O)[C@H](C)N(C(=O)c2cc4cc(C5CCOC(C)(C)C5)ccc4n2[C@@]2(c4nc(=O)o[nH]4)C[C@@H]2C)CC3)cc(C)c1F (stereo partly shown) [Compound 53]
The EC50 of the first is 2-fold higher: 50.7 nM for the first, 25.5 nM for the second. The second is the more potent here.

First: Cc1cc(-n2nc3c(c2-n2ccn(-c4ccc(N(C)C(=O)C5CC5)c(F)c4)c2=O)[C@H](C)N(C(=O)c2cc4cc([C@H]5CCOC(C)(C)C5)ccc4n2[C@@]2(c4noc(=O)[nH]4)C[C@@H]2C)CC3)cc(C)c1F [Compound 63b]
Second: Cc1cc(-n2nc3c(c2-n2ccn(-c4ccc(N(C)C(=O)C5CCC5)c(F)c4)c2=O)[C@H](C)N(C(=O)c2cc4cc([C@H]5CCOC(C)(C)C5)ccc4n2[C@@]2(c4nc(=O)o[nH]4)C[C@@H]2C)CC3)cc(C)c1F [Compound 72]
The EC50 of the first is 1.5-fold lower: 6.4 nM for the first, 9.71 nM for the second.

Compared with `Cc1cc(-n2nc3c(c2-n2ccn(-c4ccc5c(c4)S(=O)(=O)CC5)c2=O)[C@H](C)N(C(=O)c2cc4cc(C5CCOC(C)(C)C5)ccc4n2[C@@]2(c4nc(=O)o[nH]4)C[C@@H]2C)CC3)cc(C)c1F` (stereo partly shown) [Compound 57], `Cc1cc(-n2nc3c(c2-n2ccn(-c4ccc5c(c4)CCS5(=O)=O)c2=O)[C@H](C)N(C(=O)c2cc4cc([C@@H]5CCOC(C)(C)C5)ccc4n2[C@@]2(c4nc(=O)o[nH]4)C[C@@H]2C)CC3)cc(C)c1F` [Compound 56a] is 15-fold higher in EC50: 15.8 nM for the first, 241 nM for the second. The first is the more potent here.

Going from `Cc1cc(-n2nc3c(c2-n2ccn(-c4ccc(C#N)cc4F)c2=O)[C@H](C)N(C(=O)c2cc4cc([C@H]5CCOC(C)(C)C5)ccc4n2[C@@]2(c4nc(=O)o[nH]4)C[C@@H]2C)CC3)cc(C)c1F` [Compound 81b] to `Cc1cc(-n2nc3c(c2-n2ccn(-c4ccc(C#N)cc4F)c2=O)[C@H](C)N(C(=O)c2cc4cc(C5CCOC(C)(C)C5)ccc4n2[C@@]2(c4nc(=O)o[nH]4)C[C@@H]2C)CC3)cc(C)c1F` (stereo partly shown) [Compound 81], the EC50 rises from 3.92 nM to 11 nM (2.8-fold).

Compared with `Cc1cc(-n2nc3c(c2-n2ccn(-c4ccc(C(=O)N(C)C5CC5)nc4)c2=O)[C@H](C)N(C(=O)c2cc4cc(C5CCOC(C)(C)C5)ccc4n2[C@@]2(c4nc(=O)o[nH]4)C[C@@H]2C)CC3)cc(C)c1F` (stereo partly shown) [Compound 24], `Cc1cc(-n2nc3c(c2-n2ccn(-c4ccc(C(=O)N(C)C5CC5)nn4)c2=O)[C@H](C)N(C(=O)c2cc4cc(C5CCOC(C)(C)C5)ccc4n2[C@@]2(c4nc(=O)o[nH]4)C[C@@H]2C)CC3)cc(C)c1F` (stereo partly shown) [Compound 30] is 3.8-fold higher in EC50: 54.2 nM for the first, 206 nM for the second. The first is the more potent here.

Going from `CCc1cc(-n2ccn(-c3c4c(nn3-c3cc(C)c(F)c(C)c3)CCN(C(=O)c3cc5cc([C@H]6CCOC(C)(C)C6)ccc5n3[C@@]3(c5nc(=O)o[nH]5)C[C@@H]3C)[C@H]4C)c2=O)ccc1C(=O)N(C)C1CC1` [Compound 8] to `Cc1cc(-n2ccn(-c3c4c(nn3-c3cc(C)c(F)c(C)c3)CCN(C(=O)c3cc5cc([C@H]6CCOC(C)(C)C6)ccc5n3[C@@]3(c5nc(=O)o[nH]5)C[C@@H]3C)[C@H]4C)c2=O)ccc1C(=O)N(C)C1CC1` [Compound 50], the EC50 rises from 4.75 nM to 11.6 nM (2.4-fold). The first is the more potent here.

`C[C@H]1c2c(nn(-c3ccc(F)c(OC(F)(F)F)c3)c2-n2ccn(-c3ccc4c(cnn4C)c3F)c2=O)CCN1C(=O)c1cc2cc(C3CCOC(C)(C)C3)ccc2n1[C@@]1(c2nc(=O)o[nH]2)C[C@@H]1C` (stereo partly shown) [Compound 4] and `C[C@H]1c2c(nn(-c3ccc(F)c(C4CC4)c3)c2-n2ccn(-c3ccc4c(cnn4C)c3F)c2=O)CCN1C(=O)c1cc2cc([C@@H]3CCOC(C)(C)C3)ccc2n1[C@@]1(c2nc(=O)o[nH]2)C[C@@H]1C` [Compound 1a] are within 1.5-fold of each other in EC50: 34.3 nM for the first, 35.5 nM for the second.

Compared with `Cc1cc(-n2nc3c(c2-n2ccn(-c4ccc(C(F)(F)F)c(C(=O)N(C)C5CC5)c4)c2=O)[C@H](C)N(C(=O)c2cc4cc(C5CCOC(C)(C)C5)ccc4n2[C@@]2(c4nc(=O)o[nH]4)C[C@@H]2C)CC3)cc(C)c1F` (stereo partly shown) [Compound 37], `Cc1cc(-n2nc3c(c2-n2ccn(-c4c(F)cccc4C(=O)N(C)C4CC4)c2=O)[C@H](C)N(C(=O)c2cc4cc(C5CCOC(C)(C)C5)ccc4n2[C@@]2(c4nc(=O)o[nH]4)C[C@@H]2C)CC3)cc(C)c1F` (stereo partly shown) [Compound 40] is 8.2-fold higher in EC50: 18.8 nM for the first, 155 nM for the second. The first is the more potent here.

Going from `Cc1cc(-n2nc3c(c2-n2ccn(-c4ccc(C(=O)N(C)C5(C)CC5)c(OC(F)(F)F)c4)c2=O)[C@H](C)N(C(=O)c2cc4cc(C5CCOC(C)(C)C5)ccc4n2[C@@]2(c4nc(=O)o[nH]4)C[C@@H]2C)CC3)cc(C)c1F` (stereo partly shown) [Compound 34] to `Cc1cc(-n2nc3c(c2-n2ccn(-c4ccc(N(C)C(=O)C5(C)CC5)c(F)c4)c2=O)[C@H](C)N(C(=O)c2cc4cc([C@H]5CCOC(C)(C)C5)ccc4n2[C@@]2(c4nc(=O)o[nH]4)C[C@@H]2C)CC3)cc(C)c1F` [Compound 71], the EC50 falls from 7.44 nM to 4.01 nM (1.9-fold). The second is the more potent here.

Going from `Cc1cc(-n2nc3c(c2-n2ccn(-c4ccc5c(c4)CCN(C4CC4)C5=O)c2=O)[C@H](C)N(C(=O)c2cc4cc(C5CCOC(C)(C)C5)ccc4n2[C@@]2(c4nc(=O)o[nH]4)C[C@@H]2C)CC3)cc(C)c1F` (stereo partly shown) [Compound 55] to `Cc1cc(-n2nc3c(c2-n2ccn(-c4ccc(C#N)c(F)c4)c2=O)[C@H](C)N(C(=O)c2cc4cc([C@@H]5CCOC(C)(C)C5)ccc4n2[C@@]2(c4nc(=O)o[nH]4)C[C@@H]2C)CC3)cc(C)c1F` [Compound 82a], the EC50 rises from 8.07 nM to 459 nM (57-fold).

Going from `Cc1cc(-n2nc3c(c2-n2ccn(-c4ccc(C(=O)N(C)C5CC5)cc4)c2=O)[C@H](C)N(C(=O)c2cc4cc([C@H]5CCOC(C)(C)C5)ccc4n2[C@@]2(c4nc(=O)o[nH]4)C[C@@H]2C)CC3)cc(C)c1F` [Compound 10] to `Cc1cc(-n2nc3c(c2-n2ccn(-c4ccc(C(=O)N(C)CC#N)cc4)c2=O)[C@H](C)N(C(=O)c2cc4cc(C5CCOC(C)(C)C5)ccc4n2[C@@]2(c4nc(=O)o[nH]4)C[C@@H]2C)CC3)cc(C)c1F` (stereo partly shown) [Compound 44], the EC50 rises from 8.55 nM to 16.9 nM (2-fold).

Compared with `Cc1cc(-n2nc3c(c2-n2ccn(-c4ccc(N(C)C(=O)C5CC5)cc4F)c2=O)[C@H](C)N(C(=O)c2cc4cc([C@H]5CCOC(C)(C)C5)ccc4n2[C@@]2(c4nc(=O)o[nH]4)C[C@@H]2C)CC3)cc(C)c1F` [Compound 76], `Cc1cc(-n2nc3c(c2-n2ccn(-c4ccc(C#N)cc4F)c2=O)[C@H](C)N(C(=O)c2cc4cc([C@@H]5CCOC(C)(C)C5)ccc4n2[C@@]2(c4nc(=O)o[nH]4)C[C@@H]2C)CC3)cc(C)c1F` [Compound 81a] is 47-fold higher in EC50: 8.18 nM for the first, 387 nM for the second.

First: Cc1cc(-n2nc3c(c2-n2ccn(-c4ccc5c(c4)C=CS5(=O)=O)c2=O)[C@H](C)N(C(=O)c2cc4cc([C@@H]5CCOC(C)(C)C5)ccc4n2[C@@]2(c4noc(=O)[nH]4)C[C@@H]2C)CC3)cc(C)c1F [Compound 62a]
Second: Cc1cc(-n2nc3c(c2-n2ccn(-c4ccc5c(c4F)CCS5(=O)=O)c2=O)[C@H](C)N(C(=O)c2cc4cc(C5CCOC(C)(C)C5)ccc4n2[C@@]2(c4nc(=O)o[nH]4)C[C@@H]2C)CC3)cc(C)c1F (stereo partly shown) [Compound 60]
The EC50 of the first is 21-fold higher: 223 nM for the first, 10.6 nM for the second. The second is the more potent here.
